This is an account of results in US20240272171A1, “Methods for Identification of Exchangeable MHC Binding Peptides and Methods of Use Thereof” (PhenomeX Inc., priority 2020, published 2024).

For experiment [1], the target named is T1, HLA-A*02:01 (Homo sapiens, UniProt P04439, D140Y/D185E/D98H/E176V/E277Q/G131W/G231S/I119V/I121R/I166T/I218V/L300P/L318F/N151K/N90K/P208A/P217A/Q86G/Q94H/R138H/R169H/T345S). Briefly: Peptide switching on peptide-HLA-A*02:01 complex with DNP-labelled initial peptide (Example 21). In kind it is binding.
Protocol: To test binding of Immunogenic and Non-Immunogenic peptides to an MHC Class I complex, a peptide-HLA-A*02:01 complex with an initial peptide [sequence] […] The initial peptide included a dinitrophenyl (DNP) moiety conjugated to the lysine at position 5. Two peptide antigens were then tested for their ability to bind to the MHC Class I complex: [sequence] […] The peptides were resuspended in DMSO to 5 mg/mL. The peptides were then further diluted ten-fold in PBS. To set up 0.05 mL peptide switching reactions, 20 micromolar [sequence] […] In addition, a control peptide switching reaction using the peptide [sequence] […]
Samples of unswitched peptide-MHC and switched peptide-MHC were then captured on Streptavidin-coated DynaBeads (ThermoFisher). […] The peptide-MHC beads were then stored at 4° C. until they were analyzed for peptide exchange.
To quantify peptide exchange, a FITC-conjugated anti-DNP antibody specific for the DNP-conjugated initial peptide was added to a sample of each captured peptide-MHC. […] The staining for pre-assembled peptide and intact pHLA complexes were detected by Flow Cytometry on a FACSCelesta with High-Throughput Sampler (BD Biosciences). […] Approximately 5,000 bead events were recorded for each sample. The Median Fluorescence Intensity (MFI) in the APC and FITC channels of each sample was then recorded. […]
The target of experiment [2] is T1, HLA-A*02:01. As to the kind of experiment: Peptide binding and stability under culture conditions (Example 22). To be noted: beads in T Cell Culture Media at 37° C.; W6/32 antibody MFI, exponential decay fit. The protocol: To assess the stability of the pMHC Class I-peptide antigen complexes under the conditions that are used to culture T Cells, pMHC Class I complexes were first bound to beads. Biotinylated HLA-A*02:01 complexes loaded with either […] (SEQ ID NO: 5) or […] (SEQ ID NO: 6) peptides were diluted to 0.83 micrograms/mL in Assay Buffer (PBS with 2 mM EDTA and 0.1% Bovine Serum Albumin). To 0.6 mL of the pMHC solutions in microcentrifuge tubes, […] Streptavidin-coated DynaBeads (M-280, ThermoFisher) were added. The beads were mixed in the pMHC solution for 4 minutes at 2,000 rpm on a ThermoMixer (Eppendorf). The pMHC-beads were then captured on a magnetic rack, and the solution containing unbound pMHC removed by aspiration. 1 mL of Assay Buffer was added to the tubes, and then aspirated. The beads were then resuspended in 0.1 mL of Assay Buffer. The beads were then stored at 4° C. until use. […]
Antibody binding to the beads was then detected on a FACSCelesta with High-Throughput Sampler (BD Biosciences). […] Approximately 25,000 bead events were recorded for each sample. The Median Fluorescence Intensity (MFI) in the APC channel for the pHLA-beads in each sample was then recorded. […] The half-lives for the pHLA complexes were then calculated from the fitted decay constant.

Experiment [3] addresses T1, HLA-A*02:01. As to the kind of experiment: Candidate in-place peptide exchange testing (loss of FITC signal, flow cytometry). Particulars: for exchange efficiency: FITC in-place peptide, 1 micromolar pHLA, 20 micromolar incoming peptide LMYAKRAFV, 10 mM GlyCha, room temperature, 4 hour; for suitability as in-place peptide (affinity and exchangeability): HLA-A*02:01, FIG. 29. Type of experiment: binding. An excerpt:
Candidate peptides with a FITC-modified Lysine at Position 4 or 5 shown in Table 6 were purchased from a peptide manufacturer (Genscript). The fluorescent peptides were loaded into recombinant, biotinylated HLA-A*02:01 by a contract manufacturer (Biolegend). […] The peptide-HLA (pHLA) concentration in the reactions was 1 micromolar. The incoming peptide concentration was 20 micromolar.
For the incoming peptide, the peptide sequence […] […] This may be used as a model for candidate antigenic peptides, which need to displace an in-place peptide stabilizing the MHC (e.g., loaded into the MHC complex), in methods of discovering antigenic peptides and methods of activating lymphocytes as described throughout the specification.
After four hours, exchanged, unexchanged and non-fluorescent biotinylated HLA complexes were loaded onto Streptavidin coated capture beads. The HLA complex coated beads were analyzed for FITC Fluorescence on a Flow Cytometer.

On to “SLYSYFQKV [Immunogenic peptide antigen derived from SLC45A2] [listing 1 of 2 here]”, for which the percent peptide switching entry in experiment [1] is “about 99%”.

Turning to “SLLPIMWQLY [Non-Immunogenic peptide antigen derived from TCL1] [listing 1 of 2 here]”, the percent peptide switching entry in experiment [1] is “about 90%”.

As for “SLYSYFQKV [Immunogenic peptide antigen derived from SLC45A2] [listing 2 of 2 here]”, the “half-life of peptide-HLA-A*02:01 complex” value in experiment [2] is “about 17 hours”.

“LMYAKRAFV [TBA1A (Q71U36) 397-405; used as initial peptide and as incoming/displacing peptide]”: the exchange efficiency entry in experiment [3] is “about 0.30”.

For the sequence “SLLPIMWQLY [Non-Immunogenic peptide antigen derived from TCL1] [listing 2 of 2 here]”, the “half-life of peptide-HLA-A*02:01 complex” value in experiment [2] is reported as “about 0.5 hours”.

As to GMGQKDSYV [ACTB (P60709) 46-54], in experiment [3], the exchange efficiency result was “about 1.0”; the “suitability as in-place peptide (affinity and exchangeability)” value is reported as “most suitable in-place peptides”.

GAATKMAAV: the “suitability as in-place peptide (affinity and exchangeability)” value in experiment [3] is listed as “most suitable in-place peptides”.

For the sequence FLAIKKLYVG, the exchange efficiency result in experiment [3] was “about 0.65”.
